Data on 16 molecules can be found in US20070015813A1, “Treatment of protein folding disorders” (QUEEN'S UNIVERSITY AT KINGSTON, priority 2005, published 2007).

Data set [1] concerns the target T1, Aβ1-42 (Homo sapiens, UniProt P05067).
T1 construct: Aβ^1-42 (AnaSpec, lot 45685); purchased AnaSpec
Put plainly: Kinetic Thioflavin T (ThT) aggregation assay of Aβ1-42. Particulars: 20 μM Aβ1-42, kinetic ThT assay. In kind it is biochemical. How it is done:
Aβ^1-42 (1.0 mg) was either pretreated with HFIP in the same manner as Aβ^1-40 or this step was omitted. After removing HFIP, when appropriate, Aβ^1-42 was dissolved in 1% NH3 (aq.) (200 μL) and sonicated for 1 min. The solution was diluted with Tris-HCl (5.7 mL, 20 mM, pH 7.4), the pH adjusted to 7.4 with concentrated HCl (aq.) and the solution filtered using a syringe filter (0.2 μm). Prior to use in the ThT aggregation assay, the solution was diluted with an equal volume of 8 μM Thioflavin T (ThT) in Tris-HCl (20 mM, pH 7.4, 300 mM NaCl).
(§1) Aliquots (200 μL) of Aβ^1-40, Aβ^1-42, tau441 or α-synuclein with ThT or ThS were added to wells of a black polystyrene 96-well plate, followed by 2 μL of a compound in DMSO (various concentrations), or DMSO alone (controls). For α-synuclein, sodium dodecyl sulfate solution (2.0 μL, 30 mM) was also added to each well to induce aggregation. Incubations were performed in triplicate and were taken to contain 20 μM Aβ^1-40 or Aβ^1-42, 6 μM tau441 or 4 μM α-synuclein. Plates were covered with clear polystyrene lids and incubated at 37° C. in a GENios microplate reader obtained from Tecan Group Limited, Mannedorf, Zurich. For Aβ^1-40, tau441 and α-synuclein, fluorescence readings (λex=450 nm, λem=480 nm) were taken every 15 min., after first shaking at high intensity for 15 sec. and allowing to settle for 10 sec. before each reading. For Aβ^1-42, readings were taken every 5 min.
(§2) The absorbance of each compound was measured under the conditions used during testing, though on ten times the scale (2 mL), to ensure no significant quenching interfered with the assay. This step was also used to identify whether compounds were completely soluble under testing conditions.
FIG. 7 depicts inhibition of Aβ^1-42 aggregation by various synthesized bi-aromatic compounds and positive controls morin (Ono K, Yoshiike Y, Takashima A, Hasegawa K, Naiki H, Yamada M. 2003. J Neurochem 87:172-81) and RS-0406 (Walsh D M, Townsend M, Podlisny M B, Shankar G M, Fadeeva J V, Agnaf O E, Hartley D M, Selkoe D J. 2005. J Neurosci 25:2455-62) in the kinetic ThT assay. Same conditions as for Aβ^1-40, FIG. 1. Compound concentrations were 100 μM in (A), 20 μM in (B), except for RS-0406, which was tested at 100 μM, and 20 μM in (C).

Data set [2] concerns the target T2, Aβ1-40 (Homo sapiens, UniProt P05067).
T2 construct: Aβ^1-40 (AnaSpec, San Jose, Calif., lots 14212, 34862 and 34889); purchased AnaSpec, San Jose, Calif
Put plainly: Kinetic Thioflavin T (ThT) aggregation assay of Aβ1-40. In kind it is biochemical. As to conditions: for inhibition of Aβ1-40 aggregation, as measured by Thioflavin T (ThT) fluorescence: 20 μM Aβ1-40, 4 μM ThT, pH 7.4, 37° C., kinetic ThT assay. How it is done:
Aβ^1-40 (1.0 mg) was pre-treated in a 1.5 mL microfuge tube with 1,1,1,3,3,3-hexafluoroisopropanol (HFIP, 1 mL) and sonicated for 20 min. to disassemble any pre-formed Aβ aggregates. The HFIP was removed with a stream of argon and the Aβ dissolved in Tris base (5.8 mL, 20 mM, pH 10.5). The pH was adjusted to 7.4 with concentrated HCl and the solution filtered using a syringe filter (0.2 μm). This solution was used for circular dichroism studies or diluted with an equal volume of 8 μM Thioflavin T (ThT) in Tris-HCl (20 mM, pH 7.4, 300 mM NaCl) for the ThT aggregation assay.
as §1, §2
FIG. 1 depicts the inhibition of Aβ^1-40 aggregation, as measured by Thioflavin T (ThT) fluorescence, by directly-linked 3,3′-bis-indolyl compounds 0c-i (A), other bis-indoles (B), aza-indole-containing compounds (C), indole-phenols (D), indole-5-carboxylic acid-containing bi-aromatics (E), and naphthol-containing bi-aromatics (F). Aggregation conditions: 20 μM Aβ^1-40 incubated in covered black 96-well polystyrene microplates with 4 μM ThT, pH 7.4, Tris-HCl (20 mM), 150 mM NaCl, 1% DMSO. Compound concentrations are 200 μM (A,B, except where otherwise noted), 100 μM (E), 20 μM (F), or as indicated (C,D). Plates heated at 37° C. in Tecan Genios microplate reader. All incubations performed in triplicate. Prior to experiment, Aβ^1-40 pretreated with 1,1,1,3,3,3-hexafluoroisopropanol (HFIP). Fluorescence readings: fluorescence measured every 15 min. (λex=450 nm, λem=480 nm) after shaking for 15 sec. and pausing 10 sec. before taking measurement. Values are the mean of three replicates. Error bars, omitted for clarity in (B), represent standard deviation of the mean.

The nature of data set [3]: Colour on exposure to light and air (stability to oxidation). As to conditions: solid compounds, days or weeks. In kind it is physicochemical. The method, then: The highly branched bridging groups of 1h,i,j provide additional molecular diversity to help identify favourable characteristics for compound activity against Aβ.
The target of data set [4] is T3, tau441 (Homo sapiens, UniProt P10636).
T3 construct: (expression construct); host or cells: E. coli BL21 D3
Put plainly: Kinetic Thioflavin S (ThS) assay of tau441 aggregation. In kind it is biochemical. How it is done:
The tau441 expression construct [L Buee et al. (2000). Brain Research Reviews 33:95-130] was purchased (Bioclon Inc., San Diego, Calif.) already transformed in BL21 D3 bacterial cells (Novagen/EMD Biosciences) for protein expression. Cells were grown and induced with IPTG according to Novagen's protocol. To lyse cells, Cellytic B reagent (Sigma) was used with lysozyme protease inhibitors (Sigma) and benzonase (Novagen/EMD Biosciences), according to manufacturer's methods. Lysate was cleared by centrifugation for 20 min at 10,000 RPM (SS34 rotor, Sorvall RC2b centrifuge) at 4° C. Protein was purified from the soluble fraction. Once purified, tau441 was stored at −78° C. as frozen aliquots (8.3 mg/mL, 60 μL) in Tris-HCl (50 mM, pH 7.4) until used.
Frozen aliquots of tau441 (8.3 mg/mL, 60 μL) in Tris-HCl (50 mM, pH 7.4) were allowed to thaw at room temperature (RT) before being diluted with Tris-HCl (2.64 mL, 50 mM, pH 7.4) containing dithiothreitol (DTT, 1 mM) to prevent disulfide bonds and NaN3 (50 μM) to prevent bacterial growth. After allowing to stand at RT for 1 h, Thioflavin S (ThS) was added (2.5 μL, 10.8 mM), followed by the aggregation inducer heparin (20 μL, 1.08 g/mL).
as §1
Aggregation conditions: tau441 at a concentration of either 10 μM (A) or 4 μM (B,C,D,E) was incubated in covered black 96-well polystyrene microplates alone or with 100 (A) or 50 μM compound (B,C,D,E), 5 μM ThS, pH 7.4, Tris-HCl (50 mM) containing NaN3 (50 μM), and either 1% MeOH (A) or 1% DMSO (B,C,D,E). Plates were heated at 37° C. in a Tecan GENios microplate reader. All incubations performed in triplicate, except for compound 0c in (A), which had n=1. Fluorescence readings: fluorescence measured every 15 min. (λex=450 nm, λem=480 nm) after shaking for 15 sec. and pausing 10 sec. before taking measurement. Values are the mean of three replicates. Error bars, sometimes not visible due to small size, represent standard deviation of the mean.
Aggregation conditions: tau441 at a concentration of 4 μM was incubated in covered black 96-well polystyrene microplates alone or with 50 μM (A,B,C) or 1 mM compound (D), 5 μM ThS, pH 7.4, Tris-HCl (50 mM) containing NaN3 (50 μM), and 1% DMSO. Plates were heated at 37° C. in a Tecan GENios microplate reader. All incubations performed in triplicate. Fluorescence readings: fluorescence measured every 15 min. (λex=450 nm, λem=480 nm) after shaking for 15 sec. and pausing 10 sec. before taking measurement. Values are the mean of three replicates. Error bars, sometimes not visible due to small size, represent standard deviation of the mean.

T1 sequence (P05067 672-713 limits assumed): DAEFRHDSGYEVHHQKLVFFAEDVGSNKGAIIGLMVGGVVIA
T2 sequence (P05067 672-711 limits assumed): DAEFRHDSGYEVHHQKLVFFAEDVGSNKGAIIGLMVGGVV
T3 sequence (P10636 1-441 isoform P10636-8): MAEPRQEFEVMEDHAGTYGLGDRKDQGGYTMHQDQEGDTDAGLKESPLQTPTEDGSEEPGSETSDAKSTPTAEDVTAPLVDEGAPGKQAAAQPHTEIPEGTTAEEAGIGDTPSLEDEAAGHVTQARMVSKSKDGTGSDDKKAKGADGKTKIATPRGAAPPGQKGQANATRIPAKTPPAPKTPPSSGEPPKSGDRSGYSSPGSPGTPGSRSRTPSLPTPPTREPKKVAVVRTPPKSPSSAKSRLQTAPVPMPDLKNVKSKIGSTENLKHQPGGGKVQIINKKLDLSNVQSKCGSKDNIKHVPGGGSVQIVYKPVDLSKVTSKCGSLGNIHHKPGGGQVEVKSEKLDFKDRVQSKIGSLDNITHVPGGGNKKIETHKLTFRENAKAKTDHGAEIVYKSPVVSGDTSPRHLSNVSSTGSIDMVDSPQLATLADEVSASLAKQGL

`COc1ccc2[nH]cc(-c3c[nH]c4ccc(OC)cc34)c2c1` [0b, 5-methoxy-3-(5-methoxy-indol-3-yl)-indole]: the melting point (usually the temperature, or range, at which the solid turns liquid) was 193 to 196 °C.

As to `O=C(O)c1ccc2c(-c3c[nH]c4ccccc34)c[nH]c2c1` [0k, 3-(Indol-3-yl)-indole-6-carboxylic Acid], in data set [1], the “inhibition of Aβ1-42 aggregation, as measured by ThT fluorescence” value (from here on “inhibition of Aβ1-42 aggregation”) was “inhibiting aggregation”.

Turning to `Oc1ccc2[nH]cc(C3CNc4ncccc43)c2c1` (stereo not shown) [0n, 3-(2,3-dihydro-7-azaindol-3-yl)-indol-5-ol], in data set [1], the “inhibition of Aβ1-42 aggregation” value was “inhibit aggregation”. Further, the “inhibition of Aβ1-40 aggregation, as measured by Thioflavin T (ThT) fluorescence” value (“inhibition of Aβ1-40 aggregation” for short) in data set [2] was “inhibit aggregation”.

For the molecule `B.O=C(O)c1ccc2[nH]cc(-c3c[nH]c4ncccc34)c2c1` [0o, 3-(7-azaindol-3-yl)-indole-5-carboxylic acid.BH3], in data set [1], the “inhibition of Aβ1-42 aggregation” value is “inhibit aggregation”. The “inhibition of Aβ1-40 aggregation” value in data set [2] was “inhibit aggregation”.

For `c1ccc2c(c1)ccn2Cc1c[nH]c2ccccc12` [1b, 3-((indol-1-yl)methyl)-indole], the melting point lay in the range of 82 to 84 °C.

In turn, `COc1ccc2c(ccn2Cc2c[nH]c3ccc(OC)cc23)c1` [1d, 5-methoxy-3-((5-methoxy-indol-1-yl)methyl)-indole] yielded a melting point of 48 to 50 °C.

As to `CC(C)(c1c[nH]c2ccc(O)cc12)c1c[nH]c2ccc(O)cc12` [1h, 2,2-Bis-(5-hydroxyindol-3-yl)propane], the melting point was in the range of 133 to 136 °C. The “colour when exposed to light and air” value in data set [3] is reported as “remained a light colour”.

For `CC1(C)CC(C)(c2c[nH]c3ccc(O)cc23)c2[nH]c3ccc(O)cc3c21` (stereo not shown) [1i, 1,2,3,4-Tetrahydro-3-(5-hydroxyindol-3-yl)-1,1,3-trimethylcyclopenta[b]indol-7-ol], the melting point is 132 °C (dec.). For the same molecule, the “colour when exposed to light and air” value in data set [3] is “remained a light colour”.

For the molecule `CC1(C)CC2(CC(C)(C)c3c2[nH]c2ccc(O)cc32)c2[nH]c3ccc(O)cc3c21` [1j, 3,3,3′,3′-Bis(1,2,3,4-tetrahydro-1,1-dimethylcyclopenta[b]indol-7-ol)], the melting point is 140 °C (dec.). Also, the “colour when exposed to light and air” value in data set [3] is recorded as “remained a light colour”.

For the molecule `O=C(O)c1ccc2[nH]cc(CCc3c[nH]c4ccc(Br)cc34)c2c1` [2b, 3-(2-(5-bromo-indol-3-yl)ethyl)-indole-5-carboxylic Acid], the melting point is 205 °C (dec.).

`B.COc1ccc2[nH]cc(-c3c[nH]c4ncccc34)c2c1` [10n, 3-(5-methoxyindol-3-yl)-7-azaindole.BH3]: the “inhibition of Aβ1-42 aggregation” value in data set [1] was “inhibit aggregation”. The “inhibition of Aβ1-40 aggregation” value in data set [2] is on record as “inhibit aggregation”.

Regarding `Oc1cccc(Nc2ccc(Nc3cccc(O)c3)nn2)c1` [RS-0406], the “inhibition of Aβ1-42 aggregation” value in data set [1] is reported as “inhibition”.

In the case of `Oc1ccc2cc(-c3cc4ccccc4o3)ccc2c1` [compound 64, 6-Benzofuran-2-yl-naphthalen-2-ol], in data set [1], the “inhibition of Aβ1-42 aggregation” value is “inhibiting aggregation”.

`O=C(O)c1sc2ccccc2c1-c1cc2ccccc2o1` [compound 83, 3-(Benzofuran-2-yl)-benzothiophene-2-carboxylic Acid]: in data set [4] (tau441 4 or 10 μM, 50 to 100 μM compound, 5 μM ThS, heparin inducer, pH 7.4, 37° C.), the “effect on tau fibrillization (ThS fluorescence)” value is “Other than 83 in FIG. 10E, all the bi-aromatics tested significantly modulated”.

As to `O=C(O)c1ccc2[nH]c(Cc3ccc(O)cc3)c(Cc3ccc(O)cc3)c2c1` [compound 102, 2,3-bis(4-hydroxybenzyl)-indole-5-carboxylic Acid], in data set [2] (200 μM compound, 20 μM Aβ1-40, kinetic ThT assay (FIG. 1A, 1D)), the “activity against (inhibition of) Aβ1-40 aggregation at 200 μM compound” value was “active”.

`O=C(O)c1cccnc1` [nicotinic acid]: in data set [4] (tau441 4 μM, 1 mM compound (FIG. 11D)), the “effect on tau fibrillization (ThS fluorescence) at 1 mM” value is given as “no effect”.
